Reference: paper PMC11237774, “On-target, dual aminopeptidase inhibition provides cross-species antimalarial activity” (mBio, 2024)
Like-named read-outs stand apart in the source and are kept apart here.

Key:
PfA-M17 = target: T1, PfA-M17 (Plasmodium falciparum, UniProt Q8IL11); test: Recombinant aminopeptidase fluorescence assay (H-Leu-NHMec); format: biochemical, P. falciparum; conditions: Pf M17, Morrison equation; read-out: Ki^(app) ± SEM
T1 construct: made in house
Description: (§1) Inhibition of aminopeptidase activity assays were performed against nine aminopeptidases: the M1 alanyl and M17 leucyl aminopeptidases from P. falciparum (PfA-M1; PfA-M17), P. vivax (Pv-M1; Pv-M17), and P. berghei (Pb-M1; Pb-M17), and three human M1 homologs: LTA4H (OriGene TP307617), ERAP1 (OriGene TP314469), and ERAP2 (Creative BioMart ERAP2-304H). The Plasmodium enzymes were produced recombinantly as described previously ([16], [17]), and the human recombinant enzymes were purchased from commercial suppliers as indicated.
(§2) The concentration of H-Leu-NHMec in the assay was held constant for each enzyme and ranged from 10 to 100 µM, depending on the enzyme. Reactions were measured at 37°C in white 384-well plates in a total volume of 25 or 50 µL using a spectrofluorimeter (BMG FLUOstar) with excitation at 355 nm and emission at 460 nm. The fluorescence signal was continuously monitored until a final steady-state velocity, v, was obtained. Inhibition constants were calculated from biological triplicates made from three different protein preparations.
(§3) Substrate concentrations were selected to allow sensitive detection of enzyme activity while not exceeding the Km for each enzyme. A compound concentration range was selected to obtain a complete inhibition curve (0%–100 %) in biological triplicate. Where possible, the Ki values were calculated by plotting the initial rates versus inhibitor concentration and fitting to the Morrison equation for tight-binding inhibitors in GraphPad Prism (V.8.4.1; non-linear regression method).

[1] = Metabolic stability in cryopreserved hepatocytes; format: in vitro ADME; conditions: pH 7.4, read-out: in vitro hepatocyte CLint
Description: Samples were collected over the incubation period, quenched by the addition of an equal volume of acetonitrile, and analyzed using a Waters Acquity UPLC and Xevo G2 QTOF mass spectrometer with positive electrospray ionization under the MS^E mode. The natural log of the substrate concentration was plotted against the incubation time to determine the first-order degradation rate constant which was normalized to the microsomal protein concentration to give the in vitro intrinsic clearance (in vitro CLint, µL/min/mg microsomal protein). […] Cell viability was determined by Trypan Blue exclusion. At various times over the incubation period, samples were quenched with the addition of an equal volume of acetonitrile and analyzed as described above. Metabolite identification was conducted by accurate mass and tandem mass spectrometry (MS/MS) analysis.

Pv-M17 = target: T2, Pv-M17 (Plasmodium vivax, UniProt A5K3U9); test: Recombinant aminopeptidase fluorescence assay (H-Leu-NHMec); format: biochemical, P. vivax; conditions: Pv M17, Morrison equation; read-out: Ki^(app) ± SEM
T2 construct: made in house
Description: as §1, §2, §3

T2 sequence (A5K3U9 74-621): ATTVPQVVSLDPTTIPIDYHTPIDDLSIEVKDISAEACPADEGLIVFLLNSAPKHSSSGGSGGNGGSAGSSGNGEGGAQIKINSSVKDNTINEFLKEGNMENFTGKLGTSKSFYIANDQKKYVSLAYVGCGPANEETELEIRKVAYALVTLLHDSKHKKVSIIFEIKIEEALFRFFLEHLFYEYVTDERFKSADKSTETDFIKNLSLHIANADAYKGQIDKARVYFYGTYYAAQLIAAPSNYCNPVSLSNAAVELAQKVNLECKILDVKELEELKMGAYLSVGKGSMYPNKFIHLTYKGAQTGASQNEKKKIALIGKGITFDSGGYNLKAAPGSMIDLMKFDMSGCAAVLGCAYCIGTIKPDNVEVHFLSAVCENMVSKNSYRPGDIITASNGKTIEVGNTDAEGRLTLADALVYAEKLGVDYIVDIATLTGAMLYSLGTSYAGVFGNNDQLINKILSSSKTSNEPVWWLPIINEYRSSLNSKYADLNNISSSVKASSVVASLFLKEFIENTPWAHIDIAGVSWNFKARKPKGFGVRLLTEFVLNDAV
T1 sequence (Q8IL11 84-605): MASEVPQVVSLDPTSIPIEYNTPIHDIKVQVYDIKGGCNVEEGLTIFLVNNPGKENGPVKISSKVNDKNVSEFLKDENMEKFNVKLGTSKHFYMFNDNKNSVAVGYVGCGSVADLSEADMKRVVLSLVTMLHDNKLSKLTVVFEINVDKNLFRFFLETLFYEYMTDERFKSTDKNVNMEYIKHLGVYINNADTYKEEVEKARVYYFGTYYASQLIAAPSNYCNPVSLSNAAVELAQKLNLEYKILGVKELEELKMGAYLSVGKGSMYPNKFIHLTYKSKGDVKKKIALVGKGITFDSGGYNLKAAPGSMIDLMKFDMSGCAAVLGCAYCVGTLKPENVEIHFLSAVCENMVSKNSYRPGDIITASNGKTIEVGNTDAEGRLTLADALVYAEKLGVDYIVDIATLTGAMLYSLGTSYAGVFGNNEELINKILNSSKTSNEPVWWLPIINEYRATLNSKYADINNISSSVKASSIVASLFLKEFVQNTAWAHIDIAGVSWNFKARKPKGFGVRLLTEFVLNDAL

Work on `CC(C)(C)CC(=O)NC(C(=O)NO)c1ccc(-c2cc(F)c(F)c(F)c2)cc1` (stereo not shown) [MMV1557817, N-(2-(hydroxyamino)−2-oxo-1-(3′,4′,5′-trifluoro-[1,1′-biphenyl]-4-yl)ethyl)-3,3-dimethylbutanamide] yielded a Ki (PfA-M17) of 0.112 µM, a hepatocyte CLint at 1 µM ([1]; human cryopreserved hepatocytes) of 2 µL/min/1e6 cells and a hepatocyte CLint at 1 µM ([1]; rat cryopreserved hepatocytes) of 4 µL/min/1e6 cells. The Ki (Pv-M17) was 0.208 ± 0.02 µM.
